Results reported in patent publication US12171821B2, “Toxoplasma gondii vaccine” (priority 2018, dated 2024).
Entries after “also recorded” stand apart in the source; their conditions may differ.

System: T. gondii ME49 bradyzoites
Assay: Gametes and intracellular oocyst walls (AO2, 3G4, PCR) in infected cat intestinal monolayers
Assay type: cell-based, Toxoplasma gondii
Protocol: FIGS. 7A-H. Identification of gametes and intracellular oocysts in cat tissue culture. Cat intestinal organoids were disassociated by trypsin then grown as monolayers on glass slides. […] After 7 days, monolayers were incubated with mouse anti-AO2 (panels A-C) or mouse monoclonal IgM 3G4 (panels E-G), The amiloride-sensitive amine oxidase, copper-containing protein 2 (AO2) is an enzyme exclusively expressed in macrogametes and early oocysts and has a possible role in oocyst wall biogenesis. […] 3G4 is a mouse monoclonal antibody produced by immunizing mice with purified oocyst walls, thus it is a marker of oocyst wall biogenesis. Only monolayers supplemented with linoleic acid (G) had positive 3G4 vacuoles. All panels are 20 μm square with a 5 μm white size bar in the lower right corner. D) Markers for macrogamete and microgamete expression were also evaluated by PCR. Cat intestinal monolayers were grown in 24-well plates until confluency and then infected with T. gondii bradyzoites in duplicate using the same conditions as above. 7 days post-infection, RNA was extracted with TRIzol and cDNA was synthesized using an oligo (dT) primer to only amplify mRNA. AO2 was again used as a marker for macrogametes and the expected PCR product is 218 bp. To assess microgamete presence, we selected the gene TgME49_306338, which is overexpressed in the gametes stage, corresponded to day 7 post-infection in cats and has 44% identity to a protein expressed in the flagella of the motile green algae Chlamydomonas reinhardtii. The expected PCR product for TgME49_306338 is 160 bp. TUB1A was used as an input control and results in a 172 bp product. NO RT corresponds to a cDNA synthesis reaction without the addition of reverse transcriptase (RI) as a control for genomic DNA contamination. Equivalent amounts of cDNA per sample were used as a template for each PCR reaction, and the products were separated on an acrylamide gel. […] H) The number of positive oocyst walls stained with 3G4 were quantified. […] The number of positive oocyst walls were counted in each slide and divided by the area of slide in cm^2.
Immunofluorescence. Intestinal organoid monolayers or mouse fecal samples were fixed in 3.7% formaldehyde in PBS for 20 minutes, permeabilized with 0.2% triton X-100 (Sigma) in PBS at room temperature for one hour and then blocked with 3% BSA in PBS at room temperature for one hour. Primary antibody was incubated at 4° C. overnight in 0.2% v/v Triton x-100 and 3% BSA in PBS (1:100 mouse anti-GRA11B, 1:100 rabbit anti-BRP1, 1:100 mouse anti-AO2, 1:50 monoclonal mouse anti-ZO1 (Santa Cruz) or 1:25 mouse 288 IgM anti-oocyst wall 3G4. Sporulated oocysts from mouse feces were dried onto slides, fixed and permeabilized with ice cold acetone for 30 minutes and incubated with 1:20 mouse 4B6 to the visualize the sporocyst. Slides were incubated one hour with the specific secondary antibody (1:500 goat anti-rabbit Alexa Fluor 488 and 1:500 goat anti-mouse Alexa Fluor 594) at room temperature for one hour and then washed 3 times with PBS. Cells nuclei were stained with 10 μM DAPI (Sigma). Slides were mounted in Vectashield antifade mounting medium (VectorLabs). Samples were imaged on Zeiss Axioplan III equipped with a triple-pass (DAPI/fluorescein isothiocyanate [FITC]/Texas Red) emission cube, differential interference contrast optics, and a monochromatic Axiocam camera operated by Zen software (Zeiss) and processed using ImageJ (Fiji packet).
PCR of cat intestinal monolayers. […]

CCCCC/C=C\C/C=C\CCCCCCCC(=O)O [linoleic acid]
oocyst wall production (cat cells, 20 μM linoleic acid): did not enhance oocyst wall production | macrogamete protein AO2 by immunofluorescence (cat intestinal monolayers, 200 μM fatty acid, 7 days of infection): round structures were seen with reactivity to the macrogamete protein AO210; also recorded: only detected by immunofluorescence in the monolayers supplemented with linoleic acid | AO2 and TgME49_306338 expression by PCR (bands with the correct size) (cat intestinal monolayers, 200 μM, 7 days post-infection): only observed in linoleic acid supplemented monolayers | number of positive oocyst walls stained with 3G4 (cultured cat cells, 200 μM fatty acid, 7 days of infection): approximately 9 oocyst walls per cm^2
